≈ marks a conversion by molar mass, not a printed value.

The test system of this assay is Pseudomonas aeruginosa. Briefly: Antibacterial activity against Pseudomonas aeruginosa ATCC 27853 assessed as growth inhibition. The format is functional.
As to `CC(C)C[C@@H]1NC(=O)[C@H](Cc2c[nH]c3ccccc23)NC(=O)[C@H]([C@@H](C)O)NC(=O)[C@@H]2CCCN2C(=O)[C@H]2CCCN2C(=O)[C@H](CCCCN)NC(=O)[C@H](C)NC(=O)[C@H](C)NC(=O)[C@H](CCCCN)NC(=O)[C@H](Cc2c[nH]c3ccccc23)NC(=O)[C@H](CCCNC(=N)N)NC(=O)[C@H](CCCNC(=N)N)NC(=O)[C@H](CCCCN)NC(=O)[C@H](CCCCN)NC1=O`, the MIC is 0.06 µg/mL (≈ 0.0343 µM).
For `CC(C)C[C@@H]1NC(=O)[C@H](Cc2c[nH]c3ccccc23)NC(=O)[C@H]([C@@H](C)O)NC(=O)[C@@H]2CCCN2C(=O)[C@H]2CCCN2C(=O)[C@H](CCCCN)NC(=O)[C@H](C)NC(=O)[C@H](CCCCN)NC(=O)[C@H](CCCCN)NC(=O)[C@H](Cc2c[nH]c3ccccc23)NC(=O)[C@H](C)NC(=O)[C@H](CCCNC(=N)N)NC(=O)[C@H](CCCCN)NC(=O)[C@H](CCCCN)NC1=O` the value was 0.06 µg/mL (≈ 0.0349 µM); for `CC(C)C[C@@H]1NC(=O)[C@H](Cc2c[nH]c3ccccc23)NC(=O)[C@H]([C@@H](C)O)NC(=O)[C@@H]2CCCN2C(=O)[C@H]2CCCN2C(=O)[C@H](CCCCN)NC(=O)[C@H](C)NC(=O)[C@H](CCCCN)NC(=O)[C@H](CCCCN)NC(=O)[C@H](Cc2ccccc2)NC(=O)[C@H](CCCNC(=N)N)NC(=O)[C@H](CCCNC(=N)N)NC(=O)[C@H](CCCCN)NC(=O)[C@H](CCCCN)NC1=O`, 0.1 µg/mL (≈ 0.0566 µM); for `CC(C)C[C@@H]1NC(=O)[C@H](Cc2c[nH]c3ccccc23)NC(=O)[C@H]([C@@H](C)O)NC(=O)[C@@H]2CCCN2C(=O)[C@H]2CCCN2C(=O)[C@H](CCCCN)NC(=O)[C@H](C)NC(=O)[C@H](CCCCN)NC(=O)[C@H](CCCCN)NC(=O)[C@H](Cc2c[nH]c3ccccc23)NC(=O)[C@H](CCCNC(=N)N)NC(=O)[C@H](C)NC(=O)[C@H](CCCCN)NC(=O)[C@H](CCCCN)NC1=O`, 0.03 µg/mL (≈ 0.0174 µM).
In the case of `CC(C)C[C@@H]1NC(=O)[C@H](Cc2c[nH]c3ccccc23)NC(=O)[C@H]([C@@H](C)O)NC(=O)[C@@H]2CCCN2C(=O)[C@H]2CCCN2C(=O)[C@H](C)NC(=O)[C@H](C)NC(=O)[C@H](CCCCN)NC(=O)[C@H](CCCCN)NC(=O)[C@H](Cc2c[nH]c3ccccc23)NC(=O)[C@H](CCCNC(=N)N)NC(=O)[C@H](CCCNC(=N)N)NC(=O)[C@H](CCCCN)NC(=O)[C@H](CCCCN)NC1=O` it was 0.03 µg/mL (≈ 0.0172 µM); in that of `CC(C)C[C@@H]1NC(=O)[C@H](Cc2ccccc2)NC(=O)[C@H]([C@@H](C)O)NC(=O)[C@@H]2CCCN2C(=O)[C@H]2CCCN2C(=O)[C@H](CCCCN)NC(=O)[C@H](C)NC(=O)[C@H](CCCCN)NC(=O)[C@H](CCCCN)NC(=O)[C@H](Cc2c[nH]c3ccccc23)NC(=O)[C@H](CCCNC(=N)N)NC(=O)[C@H](CCCNC(=N)N)NC(=O)[C@H](CCCCN)NC(=O)[C@H](CCCCN)NC1=O`, 0.06 µg/mL (≈ 0.034 µM).
For `CC(C)C[C@@H]1NC(=O)[C@H](Cc2c[nH]c3ccccc23)NC(=O)[C@H]([C@@H](C)O)NC(=O)[C@@H]2CCCN2C(=O)[C@H]2CCCN2C(=O)[C@H](CCCCN)NC(=O)[C@H](C)NC(=O)[C@H](CCN)NC(=O)[C@H](CCCN)NC(=O)[C@H](Cc2c[nH]c3ccccc23)NC(=O)[C@H](CCCNC(=N)N)NC(=O)[C@@H](CCCCN)NC(=O)[C@H](CCCN)NC(=O)[C@H](CCN)NC1=O` the value was 0.01 µg/mL (≈ 0.00591 µM).
On to `CC(C)C[C@@H]1NC(=O)[C@H](Cc2c[nH]c3ccccc23)NC(=O)[C@H]([C@@H](C)O)NC(=O)[C@H]2CCCN2C(=O)[C@@H]2CCCN2C(=O)[C@H](CCCCN)NC(=O)[C@H](C)NC(=O)[C@H](CCN)NC(=O)[C@H](CCCN)NC(=O)[C@H](Cc2c[nH]c3ccccc23)NC(=O)[C@H](CCCNC(=N)N)NC(=O)[C@@H](CCCCN)NC(=O)[C@H](CCCN)NC(=O)[C@H](CCN)NC1=O`, for which the MIC is at least 32 µg/mL.
For `CC(C)C[C@@H]1NC(=O)[C@H](Cc2c[nH]c3ccccc23)NC(=O)[C@H]([C@@H](C)O)NC(=O)[C@@H]2CCCN2C(=O)[C@H]2CCCN2C(=O)[C@H](CCCCN)NC(=O)[C@H](C)NC(=O)[C@H](CCCCN)NC(=O)[C@H](CCCCN)NC(=O)[C@H](Cc2c[nH]c3ccccc23)NC(=O)[C@H](CCCNC(=N)N)NC(=O)[C@H](CCCNC(=N)N)NC(=O)[C@H](CCCCN)NC(=O)[C@H](CCCCN)NC1=O` the value was 0.01 µg/mL (≈ 0.00554 µM); for `CC(C)C[C@@H]1NC(=O)[C@H](Cc2c[nH]c3ccccc23)NC(=O)[C@H]([C@@H](C)O)NC(=O)[C@@H]2CCCN2C(=O)[C@H]2CCCN2C(=O)[C@H](CCCCN)NC(=O)[C@H](C)NC(=O)[C@H](CCCCN)NC(=O)[C@H](CCCCN)NC(=O)[C@H](C)NC(=O)[C@H](CCCNC(=N)N)NC(=O)[C@H](CCCNC(=N)N)NC(=O)[C@H](CCCCN)NC(=O)[C@H](CCCCN)NC1=O`, above 16 µg/mL.
For `CC(C)C[C@@H]1NC(=O)[C@H](Cc2c[nH]c3ccccc23)NC(=O)[C@H]([C@@H](C)O)NC(=O)[C@@H]2CCCN2C(=O)[C@H]2CCCN2C(=O)[C@H](CCCCN)NC(=O)[C@H](C)NC(=O)[C@H](CCCCN)NC(=O)[C@H](CCCCN)NC(=O)[C@H](Cc2c[nH]c3ccccc23)NC(=O)[C@H](CCCNC(=N)N)NC(=O)[C@H](CCCNC(=N)N)NC(=O)[C@H](CCCCN)NC(=O)[C@H](C)NC1=O` the value was 0.05 µg/mL (≈ 0.0286 µM); for `CC(C)C[C@@H]1NC(=O)[C@H](Cc2c[nH]c3ccccc23)NC(=O)[C@H]([C@@H](C)O)NC(=O)[C@@H]2CCCN2C(=O)[C@H]2CCCN2C(=O)[C@H](CCCCN)NC(=O)[C@H](C)NC(=O)[C@H](CCCCN)NC(=O)[C@H](CCCCN)NC(=O)[C@H](Cc2ccc(O)cc2)NC(=O)[C@H](CCCNC(=N)N)NC(=O)[C@H](CCCNC(=N)N)NC(=O)[C@H](CCCCN)NC(=O)[C@H](CCCCN)NC1=O`, 0.3 µg/mL (≈ 0.168 µM).
`CC(C)C[C@@H]1NC(=O)[C@H](CCCNC(=N)N)NC(=O)[C@H](CCCNC(=N)N)NC(=O)[C@H](CCCCN)NC(=O)[C@H](CCCCN)NC(=O)[C@H](CC(C)C)NC(=O)[C@H](Cc2c[nH]c3ccccc23)NC(=O)[C@H]([C@@H](C)O)NC(=O)[C@@H]2CCCN2C(=O)[C@H]2CCCN2C(=O)[C@H](CCCCN)NC(=O)[C@H](C)NC(=O)[C@H](CCCCN)NC(=O)[C@H](CCCCN)NC1=O`: the MIC turned out to be 0.1 µg/mL (≈ 0.0577 µM).
Consider `CC(C)C[C@@H]1NC(=O)[C@H](C)NC(=O)[C@H]([C@@H](C)O)NC(=O)[C@@H]2CCCN2C(=O)[C@H]2CCCN2C(=O)[C@H](CCCCN)NC(=O)[C@H](C)NC(=O)[C@H](CCCCN)NC(=O)[C@H](CCCCN)NC(=O)[C@H](Cc2c[nH]c3ccccc23)NC(=O)[C@H](CCCNC(=N)N)NC(=O)[C@H](CCCNC(=N)N)NC(=O)[C@H](CCCCN)NC(=O)[C@H](CCCCN)NC1=O`, for which the MIC is above 16 µg/mL.
Take `CC(C)C[C@@H]1NC(=O)[C@H](Cc2c[nH]c3ccccc23)NC(=O)[C@H]([C@@H](C)O)NC(=O)[C@@H]2CCCN2C(=O)[C@H]2CCCN2C(=O)[C@H](CCCCN)NC(=O)[C@H](C)NC(=O)[C@H](CCCCN)NC(=O)[C@H](CCCCN)NC(=O)[C@H](Cc2c[nH]c3ccccc23)NC(=O)[C@H](CCCNC(=N)N)NC(=O)[C@H](CCCNC(=N)N)NC(=O)[C@H](C)NC(=O)[C@H](CCCCN)NC1=O`: the MIC came to 0.1 µg/mL (≈ 0.0572 µM).
`CC(C)C[C@@H]1NC(=O)[C@H](Cc2c[nH]c3ccccc23)NC(=O)[C@H]([C@@H](C)O)NC(=O)[C@@H]2CCCN2C(=O)[C@H]2CCCN2C(=O)[C@H](CCCCN)NC(=O)[C@H](C)NC(=O)[C@H](CCCCN)NC(=O)[C@H](C)NC(=O)[C@H](Cc2c[nH]c3ccccc23)NC(=O)[C@H](CCCNC(=N)N)NC(=O)[C@H](CCCNC(=N)N)NC(=O)[C@H](CCCCN)NC(=O)[C@H](CCCCN)NC1=O`: the MIC was 0.06 µg/mL (≈ 0.0343 µM).
As to `C[C@@H]1NC(=O)[C@H](CCCCN)NC(=O)[C@H](CCCCN)NC(=O)[C@H](Cc2c[nH]c3ccccc23)NC(=O)[C@H](CCCNC(=N)N)NC(=O)[C@H](CCCNC(=N)N)NC(=O)[C@H](CCCCN)NC(=O)[C@H](CCCCN)NC(=O)[C@H](C)NC(=O)[C@H](Cc2c[nH]c3ccccc23)NC(=O)[C@H]([C@@H](C)O)NC(=O)[C@@H]2CCCN2C(=O)[C@H]2CCCN2C(=O)[C@H](CCCCN)NC1=O`, the MIC came to 0.1 µg/mL (≈ 0.0567 µM).
For `CC(C)C[C@@H]1NC(=O)[C@H](Cc2c[nH]c3ccccc23)NC(=O)[C@H](C)NC(=O)[C@@H]2CCCN2C(=O)[C@H]2CCCN2C(=O)[C@H](CCCCN)NC(=O)[C@H](C)NC(=O)[C@H](CCCCN)NC(=O)[C@H](CCCCN)NC(=O)[C@H](Cc2c[nH]c3ccccc23)NC(=O)[C@H](CCCNC(=N)N)NC(=O)[C@H](CCCNC(=N)N)NC(=O)[C@H](CCCCN)NC(=O)[C@H](CCCCN)NC1=O` the value was 0.01 µg/mL (≈ 0.00563 µM); for `CC(C)C[C@@H]1NC(=O)[C@H](Cc2ccc(O)cc2)NC(=O)[C@H]([C@@H](C)O)NC(=O)[C@@H]2CCCN2C(=O)[C@H]2CCCN2C(=O)[C@H](CCCCN)NC(=O)[C@H](C)NC(=O)[C@H](CCCCN)NC(=O)[C@H](CCCCN)NC(=O)[C@H](Cc2c[nH]c3ccccc23)NC(=O)[C@H](CCCNC(=N)N)NC(=O)[C@H](CCCNC(=N)N)NC(=O)[C@H](CCCCN)NC(=O)[C@H](CCCCN)NC1=O`, 0.06 µg/mL (≈ 0.0337 µM).
On to `CC(C)C[C@@H]1NC(=O)[C@H](CC(C)C)NC(=O)[C@H]([C@@H](C)O)NC(=O)[C@@H]2CCCN2C(=O)[C@H]2CCCN2C(=O)[C@H](CCCCN)NC(=O)[C@H](C)NC(=O)[C@H](CCCCN)NC(=O)[C@H](CCCCN)NC(=O)[C@H](Cc2c[nH]c3ccccc23)NC(=O)[C@H](CCCNC(=N)N)NC(=O)[C@H](CCCNC(=N)N)NC(=O)[C@H](CCCCN)NC(=O)[C@H](CCCCN)NC1=O`, for which the MIC is 1 µg/mL (≈ 0.577 µM).

What is called MIC is the smallest concentration in the dilution series that meets the test's criterion for growth inhibition.

Source of the values: ChEMBL document CHEMBL2417492, “Structural studies of β-hairpin peptidomimetic antibiotics that target LptD in Pseudomonas sp” (2013).
